The numbers were not newly measured in patent US20010049447A1, “Mibefradil analogues and their use” (priority 2000, published 2001), which cites them from elsewhere.

The series relates to fructose fed rats.

Consider `COCC(=O)O[C@]1(CCN(C)CCCc2nc3ccccc3[nH]2)CCc2cc(F)ccc2[C@@H]1C(C)C.Cl.Cl` [mibefradil, Methoxyacetic acid 2(S)-[2-[N-[3-(2-benzimidazolyl)propyl]-N-methylamino]ethyl]-6-fluoro-1(S)-isopropyl-1,2,3,4-tetrahydro-2-naphthyl ester dihydrochloride], for which the blood pressure result was “decrease” and the hyperinsulinemia result is “decrease”.
